Test results as given in ChEMBL document CHEMBL1151335, “Clavaric acid: a triterpenoid inhibitor of farnesyl-protein transferase from Clavariadelphus truncatus” (J Nat Prod, 1998).
Calls of active or inactive are those of the source. The calls are words filed in the database; no cut-off is given here.

What was measured:
[1] = (§1) Inhibition of human recombinant protein farnesyl transferase expressed in Escherichia coli
[2] = species on record: Homo sapiens; test: as §1
[3] = Inhibition of geranylgeranyl protein transferase
[4] = system: NIH3T3; test: Inhibition of Ras expression in mouse NIH/3T3 cells at 50 uM; format: functional, cell-based
[5] = Cytotoxicity against mouse NIH/3T3 cells at 50 uM; format: cell-based; conditions: nih3t3, 50 µM
[6] = molecular target: T1, Squalene synthase (Homo sapiens) (UniProt P37268); test: Inhibition of squalene synthase
T1 sequence (whole entry): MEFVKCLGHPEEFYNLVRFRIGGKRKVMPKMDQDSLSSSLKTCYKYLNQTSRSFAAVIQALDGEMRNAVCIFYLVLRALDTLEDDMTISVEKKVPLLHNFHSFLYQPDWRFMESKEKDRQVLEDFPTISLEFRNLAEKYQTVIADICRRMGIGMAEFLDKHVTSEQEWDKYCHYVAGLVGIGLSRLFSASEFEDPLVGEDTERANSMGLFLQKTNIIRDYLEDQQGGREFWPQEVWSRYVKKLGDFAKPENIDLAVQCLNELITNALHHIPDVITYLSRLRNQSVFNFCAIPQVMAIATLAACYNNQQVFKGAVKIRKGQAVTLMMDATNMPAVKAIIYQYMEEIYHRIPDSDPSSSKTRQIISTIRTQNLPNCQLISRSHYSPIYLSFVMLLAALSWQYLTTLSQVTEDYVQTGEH

Row | IC50 [1] | Activity [2] | Activity [3] | Activity [6] | SMILES | Activity [4] | Activity [5]
1 | 10.5 µM |  |  |  | C[C@H](CCC(O)C(C)(C)O)[C@H]1CC[C@@]2(C)C3=C(CC[C@]12C)[C@@]1(C)C[C@@H](O)C(=O)C(C)(C)[C@@H]1CC3 (some centres not stated) [CLAVARINONE] |  | 
2 |  | inactive |  |  | COC(=O)C[C@](C)(O)CC(=O)O[C@@H]1C[C@]2(C)C3=C(CC[C@H]2C(C)(C)C1=O)[C@]1(C)CC[C@H]([C@H](C)CCC(O)C(C)(C)O)[C@@]1(C)CC3 (some centres not stated) |  | 
3 | 1.3 µM |  | inactive | inactive | C[C@H](CCC(O)C(C)(C)O)[C@H]1CC[C@@]2(C)C3=C(CC[C@]12C)[C@@]1(C)C[C@@H](OC(=O)CC(C)(O)CC(=O)O)C(=O)C(C)(C)[C@@H]1CC3 (some centres not stated) [CLAVARIC ACID] | Active | Non-toxic
